Source: US10273230B2, “Substituted phenyl alkanoic acid compounds as GPR120 agonists and uses thereof” (Piramal Enterprises Limited, priority 2014, dated 2019)

Target: GPR120 receptor (Homo sapiens (Human), UniProt Q5NUL3)
Experiment: Beta (β) arrestin 2 Interaction Assay (BRET assay), β-galactosidase enzyme fragment complementation
Assay type: cell-based
Conditions: CHO-K1 cells stably expressing the GPR120 receptor; β-arrestin recruitment; 2 hours incubation; 30 μM to 1 nM
Experimental: Beta (β) arrestin 2 Interaction Assay (BRET assay) was performed using CHO-K1 cells stably expressing the GPR120 receptor using β-galactosidase (Beta gal) enzyme fragment complementation assay. The measurement of GPR120 activation upon agonist activation was directly provided by β-arrestin recruitment. One day before the β-arrestin 2 assay, CHO-K1 cells were seeded and incubated overnight at 37° C. in a 5% CO2 humidified atmosphere. Cells were treated with the test compounds in the various concentrations ranging from 30 μM to 1 nM and incubated for 2 hours for GPCR (GPR120) activation. Extent of Arrestin recruitment was measured by adding detection reagents for Beta gal complementation assay and was further incubated for 1 hour. The chemi-luminescent signal was detected on Polar Star (BMG Labtech). The dose-response curve was analyzed using Sigma Plot/Graph Pad. The EC50 (concentration of the test compounds where 50% of compounds' maximal activity is observed) values were calculated from the dose-response curve.

Sequence of GPR120 receptor (Q5NUL3 whole entry, the tested form may be a part): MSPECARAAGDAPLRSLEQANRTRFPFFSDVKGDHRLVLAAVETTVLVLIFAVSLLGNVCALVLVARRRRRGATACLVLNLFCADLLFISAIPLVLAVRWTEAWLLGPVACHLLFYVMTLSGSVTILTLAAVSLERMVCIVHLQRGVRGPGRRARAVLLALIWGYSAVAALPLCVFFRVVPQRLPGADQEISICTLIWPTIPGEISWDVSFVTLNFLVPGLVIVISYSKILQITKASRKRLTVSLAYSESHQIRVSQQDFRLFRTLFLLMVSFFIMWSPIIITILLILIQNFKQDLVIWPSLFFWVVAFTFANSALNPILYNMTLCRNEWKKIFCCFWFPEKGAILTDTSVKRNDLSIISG
Sequence of GPR120 receptor (P32121 whole entry partner, the tested form may be a part): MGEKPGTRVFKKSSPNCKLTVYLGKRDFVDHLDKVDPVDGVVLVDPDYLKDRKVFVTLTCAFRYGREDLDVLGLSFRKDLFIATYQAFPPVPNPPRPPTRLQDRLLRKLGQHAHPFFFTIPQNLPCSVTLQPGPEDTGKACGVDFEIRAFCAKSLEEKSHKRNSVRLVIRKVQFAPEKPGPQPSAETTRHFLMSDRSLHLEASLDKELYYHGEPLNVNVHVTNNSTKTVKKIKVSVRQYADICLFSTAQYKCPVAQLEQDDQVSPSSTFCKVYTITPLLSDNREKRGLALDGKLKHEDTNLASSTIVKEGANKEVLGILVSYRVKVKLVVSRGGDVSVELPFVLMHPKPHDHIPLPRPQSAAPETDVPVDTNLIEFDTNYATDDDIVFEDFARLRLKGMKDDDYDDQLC

EC50 | SMILES
50 to 500 nM | Cc1ccc(C2=C(COc3ccc(CCCC(=O)O)cc3)CCCC2)cc1 [Example 15, 4-(4-((4′-methyl-3,4,5,6-tetrahydro-[1,1′-biphenyl]-2-yl)methoxy)phenyl) butanoic Acid]
50 to 500 nM | Cc1ccc(C2=C(COc3ccc(CCCC(=O)O)cc3)CCCCC2)cc1 [Example 22, 4-(4-((2-(p-tolyl)cyclohept-1-en-1-yl)methoxy)phenyl)butanoic Acid]
500 to 5000 nM | Cc1ccc(OC2=C(COc3ccc(CCCC(=O)O)cc3)CCCC2)cc1 [Example 50, 4-(4-((2-(p-tolyloxy)cyclohex-1-en-1-yl)methoxy)phenyl)butanoic Acid]
500 to 5000 nM | O=C(O)CCCc1ccc(OCC2=C(C3=CCCCC3)CCCC2)cc1 [Example 10, 4-(4-([1,1′-bi(cyclohexane)]-1,1′-dien-2-ylmethoxy)phenyl) butanoic Acid]
500 to 5000 nM | N#CC1(c2ccc(C3=C(COc4ccc(CCCC(=O)O)cc4)CCCC3)cc2)CC1 [Example 1, 4-(4-((4′-(1-cyanocyclopropyl)-3,4,5,6-tetrahydro-[1,1′-biphenyl]-2-yl)methoxy)phenyl) butanoic Acid]
500 to 5000 nM | Cc1ccc(C2=C(COc3ccc(CCCC(=O)O)cc3)CC(F)CC2)cc1 (stereo not shown) [Example 54, 4-(4-((4-fluoro-4′-methyl-3,4,5,6-tetrahydro-[1,1′-biphenyl]-2-yl)methoxy)phenyl) butanoic Acid]
500 to 5000 nM | COc1ccc(C2=C(COc3ccc(CCCC(=O)O)cc3)CCCC2)cn1 [Example 14, 4-(4-((2-(6-methoxypyridin-3-yl)cyclohex-1-en-1-yl)methoxy)phenyl) butanoic Acid]
500 to 5000 nM | COc1ccc(C2=C(COc3ccc(CCCC(=O)O)cc3)CCCC2)cc1 [Example 6, 4-(4-((4′-methoxy-3,4,5,6-tetrahydro-[1,1′-biphenyl]-2-yl)methoxy)phenyl)butanoic Acid]
500 to 5000 nM | N#CC1(c2ccc(C3=C(COc4ccc(CCCC(=O)O)cc4)COCC3)cc2)CC1 [Example 48, 4-(4-((4-(4-(1-cyanocyclopropyl)phenyl)-5,6-dihydro-2H-pyran-3-yl)methoxy)phenyl) butanoic Acid]
500 to 5000 nM | CC1CCC(c2ccc(C3(C#N)CC3)cc2)=C(COc2ccc(CCCC(=O)O)cc2)C1 (stereo not shown) [Example 53, 4-(4-((4′-(1-cyanocyclopropyl)-4-methyl-3,4,5,6-tetrahydro-[1,1′-biphenyl]-2-yl)methoxy)phenyl)butanoic Acid]
500 to 5000 nM | O=C(O)CCCc1ccc(OCC2=C(c3ccc4c(c3)CCCC4)CCOC2)cc1 [Example 49, 4-(4-((4-(5,6,7,8-tetrahydronaphthalen-2-yl)-5,6-dihydro-2H-pyran-3-yl)methoxy)phenyl) butanoic Acid]
500 to 5000 nM | Nc1ncc(C2=C(COc3ccc(CCCC(=O)O)cc3)CCCC2)cc1C(F)(F)F [Example 8, 4-(4-((2-(6-amino-5-(trifluoromethyl)pyridin-3-yl)cyclohex-1-en-1-yl)methoxy)phenyl)butanoic Acid]
50 to 500 nM | O=C(O)CCCc1ccc(OCC2=C(c3ccc4c(c3)CCCC4)CCCC2)cc1 [Example 9, 4-(4-((2-(5,6,7,8-tetrahydronaphthalen-2-yl)cyclohex-1-en-1-yl)methoxy)phenyl) butanoic Acid]
500 to 5000 nM | N#CC1(c2ccc(C3=C(COc4ccc(CCCC(=O)O)cc4)CCCCC3)cc2)CC1 [Example 21, 4-(4-((2-(4-(1-cyanocyclopropyl)phenyl)cyclohept-1-en-1-yl)methoxy)phenyl) butanoic Acid]
50 to 500 nM | O=C(O)CCCc1ccc(OCC2=C(c3ccc(C4CC4)cc3)CCCC2)cc1 [Example 7, 4-(4-((4′-cyclopropyl-3,4,5,6-tetrahydro-[1,1′-biphenyl]-2-yl)methoxy)phenyl)butanoic Acid]
500 to 5000 nM | O=C(O)CCCc1ccc(OCC2=C(c3nc4c(s3)CCCC4)CCCC2)cc1 [Example 4, 4-(4-((2-(4,5,6,7-tetrahydrobenzo[d]thiazol-2-yl)cyclohex-1-en-1-yl)methoxy)phenyl) butanoic Acid]
